# From patent publication US20050220895A1, “Use of gallium to treat inflammatory arthritis” (priority 2003, published 2005)
# Entries after “also recorded” stand apart in the source; their conditions may differ.
# Legend:
# [1] = system: male Lewis rats with adjuvant-induced acute arthritis; test: Adjuvant-induced acute arthritis model; format: in vivo
# Description: (§1) Two preclinical animal models were tested for oral gallium efficacy in inflammatory polyarthritis; adjuvant-induced acute arthritis and streptococcal cell wall-induced chronic arthritis, respectively. Male Lewis rats were used in both studies. The models are described in detail in Bendele et al. (1999) Toxicologic Pathology 27(1):134-142 and Bendele (2001) J. Musculoskel. Neuron. Interact. 1(4):377-385.
# (§2) Materials and methods: For the adjuvant-induced acute arthritis model, male Lewis rats (7 per group for Gallium Maltolate, 4 per group for normal controls and dexamethasone-treated controls) were injected with 100 μl of Freund's complete adjuvant/lipoidal amine (FCA/LA) subcutaneously at the base of the tail on study day 0 under anesthesia. The rapid onset (within 7 days) of arthritic symptoms in this model includes ankle inflammation, bone resorption, and mild cartilage destruction. Prophylactic treatment was initiated by dosing with control vehicle or Gallium Maltolate (100 or 300 mg/kg) by daily oral gavage, from seven days prior to adjuvant injection until termination. The dexamethasone-treated control animals were administered a daily oral dose of dexamethasone (0.1 mg/kg). Body weights were measured regularly during the course of the study to track the effect of the drugs on the weight loss induced by the developing adjuvant disease, and dose volumes were adjusted accordingly. Prior to the onset of swelling, but after the establishment of systemic disease (about 7 days after adjuvant injection), caliper measurements were made of ankle joints. Ankles were measured every day until 14 days post-adjuvant injection when the rats were anesthetized and euthanized. Serum was harvested one hour after final dosing for gallium quantitation. Hind paws, liver and spleen were weighed, fixed and processed for histopathologic evaluation. Adjuvant arthritic ankles were given scores of 0-5 (0=normal; 5=severe) for inflammation and bone resorption. Splenic changes of inflammation, increased extramedullary hematopoiesis and lymphoid atrophy were scored 0-5 using criteria similar to those used for scoring of inflammation. The primary endpoint is periarticular inflammation and bone resorption as quantitated by ankle caliper measurements and histopathologic evaluation of ankles (scoring of joints). Secondary endpoints include body weight change and the inhibition of splenomegaly and hepatomegaly.
# [2] = system: male Lewis rats with streptococcal (PGPS) cell wall induced arthritis; test: Streptococcal cell wall (PGPS)-induced chronic arthritis model; format: in vivo
# Description: as §1
# This is a multiple reactivated peptidoglycan-polysaccharide (PGPS)-induced arthritis model. The rapid onset (4-5 days) of arthritic symptoms in this model includes ankle inflammation, bone resorption, mild cartilage destruction.
# (§3) Materials and methods: Male Lewis rats (N=12/group) with developing streptococcal (PGPS) cell wall induced arthritis were treated with gallium maltolate (100, 200 or 300 mg/kg, po, qd) or Cyclosporin A (CSA, 5-20 mg/kg) prophylactically beginning 1 day after intra-articular injection of PGPS into the ankles (day −14) and continued for 14 days at which time systemic reactivation was induced by intravenous (iv) injection of PGPS (day 0). Treatment was continued for another 14 days and animals were reactivated a second time (day 14). Following an additional week of treatment, rats were terminated for a total of […] of dosing. Rats were weighed on days (−)13, (−)7, 0, 8, 14 and 21, at which time, dose volumes were adjusted. Right ankle caliper measurements were taken on days 0, 2, 4, 6, 8, 10, 12, 14, 16, 18, 20 and 21. […] All rats had terminal blood samples obtained for PK sampling. Scoring of Joints: PGPS arthritic ankles are given scores of 0-5 (normal to severe) for inflammation, pannus, cartilage damage, bone resorption and periosteal bone proliferation according criteria similar to the acute arthritis study. The primary endpoint is periarticular inflammation and bone resorption as quantitated by ankle caliper measurements and histopathologic evaluation of ankles (scoring of joints).
# [3] = Serum gallium levels, acute arthritis studies; format: in vivo, rat; details: for Mean Serum Gallium Concentration: 14 days, 1 hour post-dosing
# Description: as §2, with “Prophylactic treatment was initiated by dosing with control vehicle or Gallium Maltolate (100 or 300 mg/kg) by daily oral gavage, from seven days prior to adjuvant injection until termination.” left out
# The following data was compiled from the above described model studies. All sampling was done 1 hour post-dosing.
# [4] = Serum gallium levels, chronic arthritis study; format: in vivo, rat; details: Study PG-PS/TT-1, 100 mg/kg, 1% MC suspension, 35 days, pretreatment 13 days, fasted, 1 hour post-dosing
# Description: as §3
# The following data was compiled from the above described model studies. […]
# [5] = system: male Lewis rats with streptococcal (PGPS) cell wall induced arthritis; test: Streptococcal cell wall (PGPS)-induced chronic arthritis model; format: in vivo; details: 100, 200 and 300 mg/kg daily oral gavage, 35 days
# [6] = 100 or 300 mg/kg daily oral gavage, both doses
compound,measurement,setting,value
"Cc1occc(=O)c1[O-].Cc1occc(=O)c1[O-].Cc1occc(=O)c1[O-].[Ga+3] [gallium maltolate, tris(3-hydroxy-2-methyl-4H-pyran-4-onato) gallium]",safety / signs of toxicity,"[1]; 100 or 300 mg/kg daily oral gavage in 1% methyl cellulose, 14 days, Lewis rats",safe and showed no signs of toxicity; also recorded: safe with no signs of toxicity
same,bone resorption scores,[1]; [6],significant reduction
same,liver and spleen hypertrophy (weights),[1]; [6],dose-related decrease; also recorded: marked reduction
same,effect on body weight (arthritis-induced body weight loss),"[1]; gallium maltolate 100 or 300 mg/kg, dexamethasone 0.1 mg/kg, daily oral",favorable effect
same,"ankle (joint) inflammation, clinical and histological","[1]; gallium maltolate 100 or 300 mg/kg, dexamethasone 0.1 mg/kg, daily oral, vs disease control",reduced ankle inflammation; also recorded: significant reduction; also recorded: Significant dose dependent protection
same,spleen histopathology: atrophy of the lymphoid tissue,[1]; oral gallium maltolate,prevented atrophy
same,spleen histopathology: inflammation in the spleen,[1]; oral gallium maltolate,significantly reduced inflammation
same,inflammation after the first reactivation of arthritis on day 0,[2]; 300 mg/kg oral,slight inhibition
same,"ankle swelling, first reactivation","[2]; 300 mg/kg, day 12",reduced the swelling significantly
same,bone resorption,"[2]; 100, 200 or 300 mg/kg po qd",Significant dose dependent anti-inflammatory effects
same,cartilage (damage),"[2]; 100, 200 or 300 mg/kg po qd",Significant dose dependent anti-inflammatory effects
same,histological inflammation scores,"[2]; 100, 200 or 300 mg/kg po qd",dose-related inhibition
same,pannus,"[2]; 100, 200 or 300 mg/kg po qd",dose-related effect; also recorded: Significant dose dependent anti-inflammatory effects
same,periosteal proliferation,"[2]; 100, 200 or 300 mg/kg po qd",dose-related effect; also recorded: Significant dose dependent anti-inflammatory effects
same,paw weights after the second reactivation,"[2]; 100, 200 or 300 mg/kg po qd, all treated groups",decreased
same,"inhibition of the sum of the scores for inflammation, pannus, cartilage damage and bone damage (joint histopathology)","[2]; 100, 200 or 300 mg/kg po qd, dose responsive",20-45%
same,"ankle swelling after the second reactivation (flare-up, day 14)","[2]; gallium maltolate 100, 200 or 300 mg/kg po qd, Cyclosporin A 5-20 mg/kg",decreased ankle swelling
same,"peak effect on ankle swelling, time after the flare-up",[2]; second reactivation on day 14,≤ 6 days
same,start of decreased ankle swelling after the flare-up,[2]; second reactivation on day 14,≤ 2 days
same,serum gallium levels attained,[3]; 100 or 300 mg/kg daily oral gavage,dose-dependent
same,Mean Serum Gallium Concentration,"[3]; Study LATT-1, 100 mg/kg, solution, pretreatment 1 day, not fasted",652 ng/mL
same,Mean Serum Gallium Concentration,"[3]; Study LATT-2, 100 mg/kg, 1% MC suspension, pretreatment 1 day, fasted",1350 ng/mL
same,Mean Serum Gallium Concentration,"[3]; Study LATT-2, 300 mg/kg, 1% MC suspension, pretreatment 1 day, fasted",3470 ng/mL
same,Mean Serum Gallium Concentration,"[3]; Study LATT-2, 300 mg/kg, 1% MC suspension, pretreatment 7 days, fasted",2960 ng/mL
same,Mean Serum Gallium Concentration,[4],2050 ng/mL
same,safety / signs of toxicity,[5],safe and showed no signs of toxicity; also recorded: safe with no signs of toxicity
